Read-outs that look alike come from different tables or passages of the source. Each block holds one compound with its values, some of them ahead of it.
Assays:
Zymoseptoria tritici = experiment: Leaf Blotch of Wheat (SEPTTR) fungicidal activity; assay type: in vivo; details: wheat leaf blotch; for pest or weed control at 100 ppm: High Volume application; for pest or weed control at 121.5 g/ha: Low Volume application, 121.5 g/H
How it was run: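 Wheat seedlings (Yuma, first leaf emerged) were sprayed to run-off with compound in acetone/water containing Triton X-100 and inoculated with Z. tritici spores before or after treatment. Percent disease control comes from 0–100% severity on treated versus untreated plants.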

Puccinia triticina = experiment: Wheat Brown Rust (PUCCRT) fungicidal activity; assay type: in vivo; details: for pest or weed control at 100 ppm: High Volume application; for pest or weed control at 121.5 g/ha: Low Volume application, 121.5 g/H
How it was run: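 Yuma wheat seedlings at first-leaf stage sprayed to run-off with acetone/water (Triton X-100) solutions, inoculated with P. triticina spores before or after treatment. Overnight dark dew at 22° C, then greenhouse at 24° C; percent disease control from severity versus untreated plants.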

[1] = 24 h, 1 day protectant, read-out: SEPTTR disease control, 1DP (1 Day Protectant)
[2] = 72 h, 3 day curative, read-out: SEPTTR disease control, 3DC (3 Day Curative)
[3] = 24 h, 1 day protectant, read-out: PUCCRT disease control, 1DP (1 Day Protectant)
[4] = 72 h, 3 day curative, read-out: PUCCRT disease control, 3DC (3 Day Curative)

melting point: 57 to 62 °C
SMILES: COc1ccnc(C(=O)N[C@H]2COCCC[C@@H](CCC(C)C)[C@H](C)OC2=O)c1OC(C)=O [Compound 39]
pest or weed control at 100 ppm (Zymoseptoria tritici; [1]): > 80%
pest or weed control at 100 ppm (Zymoseptoria tritici; [2]): > 80%
pest or weed control at 100 ppm (Puccinia triticina; [3]): > 80%
pest or weed control at 100 ppm (Puccinia triticina; [4]): > 80%

melting point: 197 to 198 °C
SMILES: COc1ccnc(C(=O)N[C@H]2CCOC[C@H](Cc3ccccc3)[C@@H](OCC(C)C)[C@H](C)OC2=O)c1O [Compound 95]
pest or weed control at 100 ppm (Zymoseptoria tritici; [1]): > 80%
pest or weed control at 100 ppm (Zymoseptoria tritici; [2]): < 80%
pest or weed control at 100 ppm (Puccinia triticina; [3]): > 80%
pest or weed control at 100 ppm (Puccinia triticina; [4]): < 80%

SMILES: COc1ccnc(C(=O)N[C@H]2CCCC[C@H](OC)[C@@H](OC3CCCC3)[C@H](C)OC2=O)c1OCOC(C)=O [Compound 34]
pest or weed control at 121.5 g/ha (Zymoseptoria tritici; [1]): < 80%
pest or weed control at 121.5 g/ha (Zymoseptoria tritici; [2]): > 80%
pest or weed control at 121.5 g/ha (Puccinia triticina; [3]): > 80%
pest or weed control at 121.5 g/ha (Puccinia triticina; [4]): > 80%

SMILES: COc1ccnc(C(=O)N[C@H]2CCCC[C@H](Oc3ccccc3)[C@@H](OCC(C)C)[C@H](C)OC2=O)c1O [Compound 90]
pest or weed control at 100 ppm (Zymoseptoria tritici; [1]): > 80%
pest or weed control at 100 ppm (Zymoseptoria tritici; [2]): < 80%
pest or weed control at 100 ppm (Puccinia triticina; [3]): > 80%
pest or weed control at 100 ppm (Puccinia triticina; [4]): < 80%

SMILES: COc1ccnc(C(=O)N[C@H]2COCC[C@H](Cc3ccccc3)[C@@H](Oc3ccccc3)[C@H](C)OC2=O)c1O [Compound 126]
pest or weed control at 100 ppm (Zymoseptoria tritici; [1]): > 80%
pest or weed control at 100 ppm (Zymoseptoria tritici; [2]): < 80%
pest or weed control at 100 ppm (Puccinia triticina; [3]): > 80%
pest or weed control at 100 ppm (Puccinia triticina; [4]): > 80%

SMILES: CC[C@H]1CCOC[C@H](NC(=O)c2nccc(OC)c2O)C(=O)O[C@@H](C)[C@@H]1OC(=O)c1ccccc1 [Compound 135]
pest or weed control at 100 ppm (Zymoseptoria tritici; [1]): > 80%
pest or weed control at 100 ppm (Zymoseptoria tritici; [2]): > 80%
pest or weed control at 100 ppm (Puccinia triticina; [3]): > 80%
pest or weed control at 100 ppm (Puccinia triticina; [4]): > 80%

SMILES: COc1ccnc(C(=O)N[C@H]2CCOC[C@H](OCC(C)C)[C@@H](Oc3ccccc3)[C@H](C)OC2=O)c1O [Compound 118]
pest or weed control at 100 ppm (Zymoseptoria tritici; [1]): > 80%
pest or weed control at 100 ppm (Puccinia triticina; [3]): > 80%
pest or weed control at 100 ppm (Puccinia triticina; [4]): < 80%

SMILES: COc1ccnc(C(=O)N[C@H]2COCC[C@H](Cc3ccccc3)[C@@H](OCC(C)C)[C@H](C)OC2=O)c1O [Compound 101]
pest or weed control at 100 ppm (Zymoseptoria tritici; [1]): < 80%
pest or weed control at 100 ppm (Zymoseptoria tritici; [2]): < 80%
pest or weed control at 100 ppm (Puccinia triticina; [3]): < 80%
pest or weed control at 100 ppm (Puccinia triticina; [4]): < 80%

SMILES: COc1ccnc(C(=O)N[C@H]2CCOC[C@H](Oc3ccccc3)[C@@H](Oc3ccccc3)[C@H](C)OC2=O)c1O [Compound 110]
pest or weed control at 100 ppm (Zymoseptoria tritici; [1]): > 80%
pest or weed control at 100 ppm (Puccinia triticina; [3]): > 80%
pest or weed control at 100 ppm (Puccinia triticina; [4]): > 80%

SMILES: CC[C@H]1CCOC[C@H](NC(=O)c2nccc(OC)c2OCOC(C)=O)C(=O)O[C@@H](C)[C@@H]1OCC(C)C [Compound 70]
pest or weed control at 121.5 g/ha (Zymoseptoria tritici; [1]): > 80%
pest or weed control at 121.5 g/ha (Zymoseptoria tritici; [2]): < 80%
pest or weed control at 121.5 g/ha (Puccinia triticina; [3]): > 80%
pest or weed control at 121.5 g/ha (Puccinia triticina; [4]): > 80%

SMILES: COc1ccnc(C(=O)N[C@H]2CCCC[C@H](OCC(C)C)[C@@H](Oc3ccccc3)[C@H](C)OC2=O)c1O [Compound 93]
pest or weed control at 100 ppm (Zymoseptoria tritici; [1]): > 80%
pest or weed control at 100 ppm (Zymoseptoria tritici; [2]): < 80%
pest or weed control at 100 ppm (Puccinia triticina; [3]): > 80%
pest or weed control at 100 ppm (Puccinia triticina; [4]): > 80%

SMILES: CCCOC(=O)O[C@H]1CCCC[C@H](NC(=O)c2nccc(OC)c2OCOC(C)=O)C(=O)O[C@@H](C)[C@@H]1OCC(C)C [Compound 38]
pest or weed control at 121.5 g/ha (Zymoseptoria tritici; [1]): > 80%
pest or weed control at 121.5 g/ha (Zymoseptoria tritici; [2]): > 80%
pest or weed control at 121.5 g/ha (Puccinia triticina; [3]): > 80%
pest or weed control at 121.5 g/ha (Puccinia triticina; [4]): < 80%

SMILES: CC[C@H]1CCOC[C@H](NC(=O)c2nccc(OC)c2O)C(=O)O[C@@H](C)[C@@H]1OCC(C)C [Compound 131]
pest or weed control at 100 ppm (Zymoseptoria tritici; [2]): < 80%
pest or weed control at 100 ppm (Puccinia triticina; [3]): > 80%
pest or weed control at 100 ppm (Puccinia triticina; [4]): > 80%

SMILES: COc1ccnc(C(=O)N[C@H]2CCOC[C@H](OC(=O)C(C)C)[C@@H](Oc3ccccc3)[C@H](C)OC2=O)c1OCOC(C)=O [Compound 44]
pest or weed control at 121.5 g/ha (Zymoseptoria tritici; [1]): < 80%
pest or weed control at 121.5 g/ha (Zymoseptoria tritici; [2]): < 80%
pest or weed control at 121.5 g/ha (Puccinia triticina; [3]): > 80%
pest or weed control at 121.5 g/ha (Puccinia triticina; [4]): > 80%

SMILES: CCCCCO[C@H]1[C@H](C)OC(=O)[C@@H](NC(=O)c2nccc(OC)c2O)CCCC[C@@H]1Oc1ccccc1 [Compound 96]
pest or weed control at 100 ppm (Zymoseptoria tritici; [1]): < 80%
pest or weed control at 100 ppm (Zymoseptoria tritici; [2]): < 80%
pest or weed control at 100 ppm (Puccinia triticina; [3]): > 80%
pest or weed control at 100 ppm (Puccinia triticina; [4]): < 80%

SMILES: COc1ccnc(C(=O)N[C@H]2CCCC[C@H](OC)[C@@H](OC3CCCC3)[C@H](C)OC2=O)c1O [Compound 107]
pest or weed control at 100 ppm (Zymoseptoria tritici; [1]): > 80%
pest or weed control at 100 ppm (Zymoseptoria tritici; [2]): < 80%
pest or weed control at 100 ppm (Puccinia triticina; [3]): > 80%
pest or weed control at 100 ppm (Puccinia triticina; [4]): > 80%

SMILES: CCCO[C@H]1CCCC[C@H](NC(=O)c2nccc(OC)c2OCOC(C)=O)C(=O)O[C@@H](C)[C@@H]1Oc1ccccc1 [Compound 23]
pest or weed control at 121.5 g/ha (Zymoseptoria tritici; [1]): > 80%
pest or weed control at 121.5 g/ha (Zymoseptoria tritici; [2]): > 80%
pest or weed control at 121.5 g/ha (Puccinia triticina; [3]): > 80%
pest or weed control at 121.5 g/ha (Puccinia triticina; [4]): > 80%

SMILES: COc1ccnc(C(=O)N[C@H]2CCCC[C@H](CC3CCCC3)[C@@H](OC)[C@H](C)OC2=O)c1OC(C)=O [Compound 59]
pest or weed control at 121.5 g/ha (Zymoseptoria tritici; [1]): < 80%
pest or weed control at 121.5 g/ha (Puccinia triticina; [3]): > 80%
pest or weed control at 121.5 g/ha (Puccinia triticina; [4]): > 80%
